In US20220023358A1, “COMBINATION THERAPIES OF MICROORGANISMS AND IMMUNE MODULATORS FOR USE IN TREATING CANCER” (Synlogic Operating Company, Inc., priority 2018, published 2022):

Legend:
[1] = system: WT, TLR4−/− and STING−/− BMDCs; assay: Cytokine mRNA in WT, TLR4−/− and STING−/− BMDCs; format: cell-based, murine; settings: 4 hours
Experimental: (§1) In indicated groups cells were pre-treated with for lh with Cytochalasin D (10 μM). Macrophages or BMDCs incubated in media alone served as a negative control. Cells were analyzed for the upregulation of Ifnbl and 116 mRNA (FIGS. 7D-7G). WT, TLR4^−/− and STING-^−/− BMDCs were treated with Control EcN (MOI: 25), pre-induced SYN1891 (MOI: 25), LPS (100 ng/mL), or smSTING agonist (5 μg/mL) for 4 hours. Cells were analyzed for the upregulation of Ifnb1, Il6 and Il12a mRNA (FIGS. 7H-7J). Data are representative of two or more independent experiments with mean and standard deviation shown. **P<0.005; ***P<0.0005; ****P<0.00001; two-tailed unpaired Student's t-test comparing the indicated groups.
LPS is an integral component of the outer membrane of Gram-negative bacteria and as such LPS recognition by TLR4 plays an important role in the induction of immune responses by these microbes.

[2] = system: RAW 264.7 macrophages or WT BMDCs; assay: Cytokine mRNA in RAW 264.7 macrophages or WT BMDCs, with or without Cytochalasin D; format: cell-based, murine
Experimental: as §1
To evaluate the mechanism of action of SYNB1891 in the induction of type I IFNs, bacterial phagocytosis was blocked using cytochalasin D. Cytochalasin D inhibits actin polymerization and prevents phagocytosis, yet it has minimal effect on endocytosis/pinocytosis of soluble small molecules. […] Therefore, phagocytosis of SYNB1891 is required for intracellular CDA release and STING activation in target cells, providing a natural mechanism for preferential activation of APCs in the tumor.

[3] = system: NK cells; settings: first-in-human clinical trial; cited from earlier work
[4] = system: Hyaluronan or Hyaluronic acid (HA); settings: mouse PDA tumors; cited from earlier work

Nc1ncnc2c1ncn2[C@@H]1O[C@@H]2COP(O)(=S)O[C@@H]3C(O)[C@@H](COP(O)(=S)O[C@H]2[C@H]1O)O[C@H]3n1cnc2c(N)ncnc21 (stereo partly drawn) [smSTING agonist, 2′3′-c-di-AM(PS)2 (Rp,Rp)]
IFNβ1 expression in STING−/− BMDCs ([1]; STING−/− BMDCs): completely abrogated | IFNβ1 expression in TLR4−/− BMDCs ([1]; TLR4−/− BMDCs): preserved | Cytokines expressed ([2]; 4 hours, 5 μg/mL): led only to IFNβ1 expression | IFNβ1 induction, effect of Cytochalasin D ([2]; Cytochalasin D pre-treatment): did not affect

recombinant human IL-15: recombinant human IL-15 cytokine
Expansion of NK cells [3]: 10 fold

B1: PEGPH20: PEGylated form of rHuPH20, a hyaluronidase (protein, UniProt P38567 36-490, looked up)
Hyaluronidase PH-20: LNFRAPPVIPNVPFLWAWNAPSEFCLGKFDEPLDMSLFSFIGSPRINATGQGVTIFYVDRLGYYPYIDSITGVTVNGGIPQKISLQDHLDKAKKDITFYMPVDNLGMAVIDWEEWRPTWARNWKPKDVYKNRSIELVQQQNVQLSLTEATEKAKQEFEKAGKDFLVETIKLGKLLRPNHLWGYYLFPDCYNHHYKKPGYNGSCFNVEIKRNDDLSWLWNESTALYPSIYLNTQQSPVAATLYVRNRVREAIRVSKIPDAKSPLPVFAYTRIVFTDQVLKFLSQDELVYTFGETVALGASGIVIWGTLSIMRSMKSCLLLDNYMETILNPYIINVTLAAKMCSQVLCQEQGVCIRKNWNSSDYLHLNPDNFAIQLEKGGKFTVRGKPTLEDLEQFSEKFYCSCYSTLSCKEKADVKDTDAVDVCIADGVCIDAFLKPPMETEEPQIFYNASPSTLS
modifications: PEG
notes: PEGylated form of rHuPH20, a hyaluronidase
Interstitial fluid pressure after treatment [4]: 20-30 mmHg
